Experimental findings from patent US7572890B2, “Recombinant human mannan-building proteins” (Fuso Pharmaceutical Industries, Ltd., priority 1998, dated 2009) are described below.

In one assay the target is T1, rhMBP (with Vitamin C) (Homo sapiens, UniProt P11226).
T1 construct: made in house; host or cells: CHO DG44 (dhfr-), neomycin/MTX-resistant clones; purified from culture supernatant on mannan-agarose
The experiment in a line: Sugar inhibition of rhMBP (cultured with vitamin C) binding to mannan (ELISA). In general terms: ELISA stands for enzyme-linked immunosorbent assay.

For assay [1], the target named is T2, rhMBP (without Vitamin C) (Homo sapiens, UniProt P11226).
T2 construct: made in house; host or cells: CHO DG44 (dhfr-), neomycin/MTX-resistant clones; purified from culture supernatant on mannan-agarose
The experiment in a line: Sugar inhibition of rhMBP (cultured without vitamin C) binding to mannan (ELISA).

A further assay has as its target T3, native hMBP (Homo sapiens, UniProt P11226).
T3 construct: samples of stepwise dilution of the native hMBP, rhMBP (cultured with vitamin C), rhMBP (cultured without vitamin C)
Briefly: Sugar inhibition of native hMBP binding to mannan (ELISA).

Assay [2] concerns Influenza A virus A/Ibaraki/l/90 (H3N2). The experiment in a line: Hemagglutination Inhibition (HI) activities. It is filed as cell-based. The settings on record: for Minimum Protein Concentration for HI Activities: 16HAU virus, chicken erythrocytes.
For assay [3], the system named is Influenza A virus A/Ibaraki/l/90. The experiment in a line: Neutralization activities (focus reduction on MDCK cells). In kind it is cell-based.
The test system of assay [4] is Influenza A virus (H1N1 Yamagata virion, H3N2 Beijin virion). Briefly: Binding of rhMBP to blotted viral structural proteins: Influenza A virus. The settings on record: rhMBP 1.0 μg/ml; FIG. 20. As to the method: (§1) Binding activities on rhMBP to HIV-1, HBV and Influenza A virus were determined by electrophoresing the following viral structural proteins, transferring them to membranes, binding thereto rhMBP and detecting them with labeled antibody.
(§2) Necessary amounts of viral structural proteins for the electrophoresis were 0.25 μg of HIV-gp120 (HIVIIIB-gp120) (ADVANCED BIOTECHNOLOGIES INCORPORATED (ABI)), 0.25 μg of HIV-gp160 (HIVIIIB-gp160) (ABI), 10 μg of HBS (Hepatitis B Surface Antigen (HBsAg) (ABI), Subtype ad), Influenza A virus (IAV; presented by The Research Foundation For Osaka University Research Institute for Microbial Diseases), 5 μg of H1N1 Yamagata virion and 5 μg of H3N2 Beijin virion.
(§3) SDS-PAGE employed polyacrylamide gel having the concentration gradient of 4˜20%, and HIV-1 and HBS were electrophoresed under reducing condition. After the electrophoresis, they were transferred to Immobilon-P^SQ transfer membrane (Millipore) with NOVA BLOT™ electrophoretic transfer unit (Pharmacia) by using semi-dry electroblot buffer kit (Owl Scientific). After such transfer, they were blocked with BLOCKACE™ blocking solution (Dainippon Pharmaceutical) at room temperature for one hour. […]

Assay [5] is described as follows: Sugar binding activity of MBP on mannan-coated plates (ELISA). The following applies: Table 1. As to the method:
Microtiter Plates were treated with 100 μl of coating buffer (15 mM sodium carbonate, 35 mM sodium hydrogen carbonate, 0.05% sodium azide, pH 9.6) containing mannan (10 μg/ml:SIGMA) at 4° C. overnight. After each treatment step, the plates were washed three times with TBSNTC solution (TBS, 0.05% sodium azide, 0.05% TWEEN 20 (Registered Trade Mark), 5 mM calcium chloride). After completing the coating of the plates, the plates were treated and blocked with BLOCKACE™ blocking solution (Dainippon Pharmaceutical) at room temperature for one hour.
After washing them, samples of stepwise dilution of the native hMBP, rhMBP (cultured with vitamin C), rhMBP (cultured without vitamin C) having the concentration of 200, 100, 50, 25, 12.5, 6.25 ng/ml, combination samples of 200 ng/ml of each hMBP with EDTA added to be its concentration of 10 mM, and combination samples of 50 ng/ml of each hMBP with mannose added to be its concentration of 100 mM were prepared, thereafter, 100 μl of each of them were poured into each well and were incubated at 37° C. for one hour. […] After incubating them at room temperature for 30 minutes, 100 μl of 1M phosphoric acid were added thereto, and their absorbance were measured at 450 nm (Model 450 Microplate Reader; Bio-Rad). […]

Assay [6] relates to HIV-1 (HIV-gp120, HIV-gp160). The experiment in a line: Binding of rhMBP to blotted viral structural proteins: HIV-1. The settings on record: rhMBP 1.0 μg/ml; FIG. 20. The protocol:
as §1, §2, §3

Assay [7] has as its system Influenza A virus A/Ibaraki/1/90. It is filed as cell-based. The following applies: 0.5 and 1 μg/ml, three days; FIG. 21.
Another assay concerns guinea pig complement. The experiment in a line: Complement activation: hemolysis of mannan-sensitized sheep erythrocyte.
The subject of assay [8] is HBV (Hepatitis B Surface Antigen). The experiment in a line: Binding of rhMBP to blotted viral structural proteins: HBV. The settings on record: rhMBP 1.0 μg/ml; FIG. 20. As to the method:
as §1, §2, §3

The mark [9] stands for this setting: rhMBP (with Vitamin C), mannan-coated microtiter plates, read-out: I 50: Sugar concentration to halve binding activities with mannan.
Where [10] appears, read: rhMBP (without Vitamin C), mannan-coated microtiter plates, read-out: I 50: Sugar concentration to halve binding activities with mannan.
[11] abbreviates: native hMBP, mannan-coated microtiter plates, read-out: I 50: Sugar concentration to halve binding activities with mannan.

Where two headings read alike, the source gives them in different places. A value given as a limit tells only on which side of the number the result lay.

T3 sequence (P11226 21-248): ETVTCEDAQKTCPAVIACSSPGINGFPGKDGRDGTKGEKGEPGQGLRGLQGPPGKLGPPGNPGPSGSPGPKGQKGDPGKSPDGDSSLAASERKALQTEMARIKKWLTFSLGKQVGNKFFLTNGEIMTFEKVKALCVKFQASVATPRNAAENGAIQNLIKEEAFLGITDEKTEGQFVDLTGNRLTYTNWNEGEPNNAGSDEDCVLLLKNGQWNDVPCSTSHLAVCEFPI
T2 sequence (P11226 21-248): as above
T1 sequence (P11226 21-248): as above

Consider `C[C@@H](O)[C@H](O)[C@H](O)[C@@H](O)C=O` [D-Fucose], for which the IC50 on rhMBP (with Vitamin C) (setting [9]) amounted to 39.1 mM; in assay [1] (setting [10]) it was 86.7 mM; on native hMBP (setting [11]), 33.5 mM.
`O=C[C@@H](O)[C@@H](O)[C@H](O)[C@H](O)CO` [D-Mannose]: the results for the IC50 (at rhMBP (with Vitamin C); in assay [1]; on native hMBP) were 6.7 mM, 6.8 mM and 3.7 mM, respectively.
Taken in the same sequence, the figures for `O=C[C@H](O)[C@@H](O)[C@@H](O)[C@H](O)CO` [Galactose] were 29.8 mM, 36.7 mM and 24.2 mM.
As for `C[C@H](O)[C@@H](O)[C@@H](O)[C@H](O)C=O` [L-Fucose], the IC50 on rhMBP (with Vitamin C) (setting [9]) is 4.4 mM; in assay [1] (setting [10]), 8.7 mM; at native hMBP (setting [11]) it was 4.2 mM.
Take `OC[C@H]1O[C@@H](O[C@H]2[C@H](O)[C@@H](O)C(O)O[C@@H]2CO)[C@H](O)[C@@H](O)[C@H]1O` (stereo partly shown) [Lactose]: the IC50 was determined as 46.6 mM on rhMBP (with Vitamin C) (setting [9]), 59.4 mM in assay [1] (setting [10]) and 36 mM at native hMBP (setting [11]).
For `OC[C@H]1O[C@H](O[C@H]2[C@H](O)[C@@H](O)[C@H](O)O[C@@H]2CO)[C@H](O)[C@@H](O)[C@@H]1O` [Maltose], in that order: 6.4 mM, 7.4 mM and 7.4 mM.
Taken in the same sequence, the figures for `CC(=O)N[C@H]1C(O)O[C@H](CO)[C@H](O)[C@@H]1O` (stereo partly drawn) [N-Acetyl-D-Galactosamine] were above 100 mM, above 100 mM and above 100 mM.
Consider `CC(=O)N[C@H]1C(O)O[C@H](CO)[C@@H](O)[C@@H]1O` (stereo partly drawn) [N-Acetyl-D-Glucosamine], for which the values for the IC50 (at rhMBP (with Vitamin C) (setting [9]); in [1] (setting [10]); at native hMBP (setting [11])) were 3.6 mM, 3.8 mM and 2.7 mM, respectively.
Turning to `CC(=O)N[C@@H]1C(O)O[C@H](CO)[C@@H](O)[C@@H]1O` (stereo partly drawn) [N-Acetyl-D-Mannosamine], the IC50 came to 6.9 mM on rhMBP (with Vitamin C) (setting [9]), 6.9 mM in assay [1] (setting [10]) and 4.4 mM on native hMBP (setting [11]).
As to “native hMBP: natural Human Mannan-Binding Protein, used as comparator”, the “Minimum Protein Concentration for HI Activities” value in assay [2] was determined as 40 ng/mL.
Same read-out and setting: the same measure for “rhMBP (with Vitamin C): rhMBP from CHO clone cultured in medium with vitamin C added”: 80 ng/mL; for “rhMBP (without Vitamin C): rhMBP from CHO clone cultured in medium without vitamin C”: 80 ng/mL.
For “rhMBP: recombinant human Mannan-Binding Protein expressed from pNOW1-hMBP in dhfr- CHO cells, purified on mannan-agarose”, the “Neutralization activities on addition of mannose” value in assay [3] (100 mM mannose) is recorded as “inhibited by addition of mannose”. Moreover, the “Neutralization activities for influenza virus (reduction rate of FFU)” value in assay [3] (FIG. 19, MDCK cells) is recorded as “had neutralization activities for influenza virus”. In assay [4], the “Binding activities to Influenza A virus” value was “have binding activities”. Further, the “Sugar binding specificities compared with native hMBP” value in assay [5] was “substantially identical to those by the native hMBP”. In assay [6], the “Binding activities to HIV-1” value is recorded as “have binding activities”. Also, the “Viral growth inhibition (gross area of virus-infected focus)” value in assay [7] is listed as “reduced focus area infected by influenza viruses concentration-dependently”. In the assay with guinea pig complement (1, 10, 100 and 1000 ng/tube, FIG. 22), the “Hemolysis of sensitized sheep erythrocyte (complement activation)” value was “hemolyzed concentration-dependently sensitized sheep erythrocyte substantially like the native hMBP”. In addition, the “Complement activation on addition of mannose” value in the assay with guinea pig complement (mannose added) was “suppressed by an addition of mannose”. In assay [2] (Table 2 and FIG. 18), the “Hemagglutination Inhibition (HI) activities compared with native hMBP” value is given as “not inferior to that by native hMBP”. Also, the “Binding activities to HBV” value in assay [8] is “have binding activities”.
